Test results taken from ChEMBL document CHEMBL4011609, “Discovery of novel BRD4 inhibitors by high-throughput screening, crystallography, and cell-based assays” (Bioorg Med Chem Lett, 2017).

These molecules were tested against T1, Bromodomain-containing protein 4 (Homo sapiens, UniProt O60885) (assay: Inhibition of human BRD4-BD1 (49 to 170 residues) expressed in Escherichia coli BL21(DE3) using N-C:SGRG-K(Ac)-GG-K(Ac)-GLG-K(Ac)-GGA-K(Ac)-RHRKVGG-K(biotin) as substrate preincubated for 15 mins followed by substrate addition measured after 5 mins by AlphaScreen assay).

SMILES | IC50 [µM]
c1coc(-c2nnc(-c3ccc4ccccc4c3)c3nocc23)c1 | 13.3
Cc1ccn(-c2ccc(NCCNC(=O)c3ccc(Br)o3)nn2)n1 | 21.3
COc1ccc(/C=C(\NC(=O)c2ccc(C)cc2)C(=O)NCCCn2ccnc2)cc1 | 11
O=C(Nc1ccc(Cl)cn1)c1c(F)c(F)c(F)c(F)c1F | 32.2
CCN1C(=O)c2cccc3c(S(=O)(=O)N4CCCC4)ccc1c23 | 1.91
CC(=O)C(C(C)=O)C(c1ccc(Cl)cc1)c1ccc(Cl)cc1 | 27.5
O=C(NCCNc1ccc(-n2cccn2)nn1)c1ccccc1 | 13.8
O=C(Nc1cccc(S(=O)(=O)N2CCCC2)c1)c1nc[nH]n1 | 42.2
CCOC(=O)c1ncccc1NC(=O)CC(=O)Nc1cccnc1C(=O)OCC | 2.87
COC(=O)C(O)(c1cc(C)c2cccnc2c1O)C(F)(F)F (configuration not stated) | 2.1
CC(=O)N(C)c1ccc(NC(=O)COc2ccc(Br)cc2Cl)cc1 | 50.9
COc1ccccc1NC(=O)CCSc1cccc2cccnc12 | 18.7
O=c1[nH]n(CC2COC3(CCCCC3)O2)c(=O)c2ccccc12 (configuration not stated) | 13.3
CC1(C)CON(Cc2ccc(N3C(=O)c4cccnc4C3=O)cc2Cl)C1=O | 12.7
COc1ccc(C2=NN(C(=O)CCCC(=O)O)C(c3cn(-c4ccccc4)nc3-c3ccccc3)C2)cc1 (configuration not stated) | 5.36
CCc1nnc(NC(=O)C2(C)COC(c3ccccc3)OC2)s1 (configuration not stated) | 69.2
O=C(NCCNc1ccc(-n2cccn2)nn1)c1ccccc1Cl | 11.2
O=C(CN1CC(=O)Oc2ccccc21)OCC(=O)c1ccc(Br)cc1 | 1.11
N#Cc1c(-c2ccc(Cl)cc2)cc(-c2cccs2)nc1SCC(=O)NCC(=O)O | 0.89
CCCn1nnc(NC(=O)COc2ccc(Cl)cc2C)n1 | 23.1
Cc1ccc(-[n+]2c3ccccc3nc3ccc(N4CCOCC4)cc32)cc1 | 10.9
Cc1[nH]n(-c2nc(O)c(Cc3ccccc3)c(=O)[nH]2)c(=O)c1CCO | 3.09

Next, values leading:

IC50 [µM] | SMILES
2.64 | CCCNS(=O)(=O)c1ccc2c3c(cccc13)C(=O)N2CC
3.65 | CN(CCCNc1cc(=O)oc2ccccc12)C(=O)c1cccc(Cl)c1
8.18 | CN(CCCNc1cc(=O)oc2ccccc12)C(=O)c1cccc(F)c1
9.57 | CCCNS(=O)(=O)c1ccc2c3c(cccc13)C(=O)N2C
47.3 | O=C(NCc1n[nH]c(=O)c2ccccc12)c1cccc(Cl)c1
4.56 | CN(CCCNc1cc(=O)oc2ccccc12)C(=O)C(C)(C)C
9.68 | CCN1C(=O)c2cccc3c(S(=O)(=O)Nc4ccccc4C)ccc1c23
39 | O=C(c1ccccc1)c1ccc(NS(=O)(=O)c2cccc(Br)c2)cc1
2.05 | CN(CCCNc1cc(=O)oc2ccccc12)C(=O)c1ccco1
2.83 | CC(=O)CC(c1ccccc1)c1c(O)c2ncccc2oc1=O (configuration not stated)
50.7 | Cc1ccc(C)c(NC(=O)CC(c2ccccc2)c2ccccc2)c1
1.04 | O=C(CNc1cc(=O)oc2ccccc12)OCC(=O)c1ccc(Br)cc1

Each molecule was assayed against T1, Bromodomain-containing protein 4 (assay: Inhibition of human BRD4-BD1 (49 to 170 residues) expressed in Escherichia coli BL21(DE3) using N-C:SGRG-K(Ac)-GG-K(Ac)-GLG-K(Ac)-GGA-K(Ac)-RHRKVGG-K(biotin) as substrate preincubated for 15 mins followed by substrate addition measured after 5 mins by AlphaScreen assay relative to control).
Parameters: concentration or dose not given beside the values

SMILES | inhibition [%]
O=c1oc2ccccc2c2ncn(CCCN3CCOCC3)c12 | 40.7
COc1cccc2cc(C(=O)N(C)C)c(=O)oc12 | 38.5

Continued, values first:

inhibition [%] | SMILES
59.9 | O=c1cc(NCCCN2CCOCC2)c2ccccc2o1
37.2 | CN(C)CCCNCCCNc1cc(=O)oc2ccccc12
48.9 | COc1ccc(C(=O)N(C)CCCNc2cc(=O)oc3ccccc23)cc1
56.5 | CN(CCCNC(=O)c1nc2ccccc2c(=O)[nH]1)C(=O)c1cccs1
12.8 | O=C(NCCNc1cc(=O)oc2ccccc12)c1ccc2ccccc2n1
22.1 | O=c1cc(NC2CCN(CCCc3ccccc3)CC2)c2ccc(Cl)cc2o1
58.5 | O=c1cc(NCCCn2ccnc2)c2ccccc2o1
97.1 | CN(CCCNc1cc(=O)oc2ccccc12)C(=O)c1cccc(Cl)c1
97.3 | CN(CCCNc1cc(=O)oc2ccccc12)C(=O)c1cccc(F)c1
24.5 | CN1CCN(CCCNc2c(N)c(=O)oc3ccccc23)CC1
30.2 | O=C(NCCCNc1cc(=O)oc2ccccc12)c1cccnc1
72 | O=C(NCCNc1cc(=O)oc2ccccc12)c1cccs1
96.2 | CN(CCCNc1cc(=O)oc2ccccc12)C(=O)C(C)(C)C
71.5 | O=C(NCCCNC(=O)c1cccs1)c1nc2ccccc2c(=O)[nH]1
42.8 | O=c1oc2ccccc2c(NCCCN2CCOCC2)c1[N+](=O)[O-]
52.3 | O=c1cc(NCCCN2CCN(Cc3ccccc3)CC2)c2ccccc2o1
98 | CN(CCCNc1cc(=O)oc2ccccc12)C(=O)c1ccco1
58.5 | O=c1oc2ccccc2c(NC2CCN(Cc3ccccc3)CC2)c1[N+](=O)[O-]
28.6 | CN(CCCNc1cc(=O)oc2ccccc12)S(=O)(=O)c1ccccc1
97.4 | O=C(CNc1cc(=O)oc2ccccc12)OCC(=O)c1ccc(Br)cc1
43.6 | O=C(NCCNc1cc(=O)oc2ccccc12)c1ccco1
